Read-outs that look alike come from different tables or passages of the source. Bounds are passed on as bounds.

The record followed here is US20220089599A1, “ALKYNYL NICOTINAMIDE COMPOUNDS AS KINASE INHIBITORS” (PURDUE RESEARCH FOUNDATION, priority 2018, published 2022).

One assay deals with KCL22. In kind it is cell-based. The conditions noted are these: Homo sapiens.
In the next assay the test system is KCL22-IR. It is filed as cell-based. The conditions noted are these: read-out: IC50 KCL22-IR.
The next assay has as its system MOLM14. In kind it is cell-based. To be noted: Homo sapiens.
A further assay deals with K562. It is filed as cell-based. The conditions noted are these: Homo sapiens.
The next assay concerns MOLM14-D835Y. In kind it is cell-based.
The next assay concerns MOLM14-F691L. In kind it is cell-based. To be noted: Homo sapiens.
The next assay concerns MOLM13-res. It is filed as cell-based. To be noted: read-out: IC50 MOLM13-res.
The next assay deals with H520. In kind it is cell-based. To be noted: Homo sapiens.
Another assay relates to MV-4-11. It is filed as cell-based. To be noted: Homo sapiens.
For another assay, the target named is c-SRC (Homo sapiens, UniProt P12931). As to the kind of experiment: Kinase IC50 at Reaction Biology. It is filed as biochemical.
The test system of the next assay is LC2/Ad. In words: cells. To be noted: Homo sapiens, LC-2-ad, read-out: IC50 LC2/Ad.
The mark [1] stands for this setting: KCL-22, cell activities of other nicotinamide compounds, KCL22, read-out: IC50 KCL22.
Where [2] appears, read: cell activities of other nicotinamide compounds, KCL22-IR.
The mark [3] stands for this setting: cell activities of other nicotinamide compounds, MOLM-14, read-out: IC50 MOLM-14.
[4] abbreviates: cell activities of other nicotinamide compounds, K562, read-out: IC50 K562.
Setting [5] is: Homo sapiens, cell activities of other nicotinamide compounds, MOLM-14 (ITD, D85Y), read-out: IC50 MOLM-14 (ITD, D85Y).
Where [6] appears, read: cell activities of other nicotinamide compounds, MOLM-14 (ITD, F691L), read-out: IC50 MOLM-14 (ITD, F691L).

Sequence of c-SRC (P12931 whole entry): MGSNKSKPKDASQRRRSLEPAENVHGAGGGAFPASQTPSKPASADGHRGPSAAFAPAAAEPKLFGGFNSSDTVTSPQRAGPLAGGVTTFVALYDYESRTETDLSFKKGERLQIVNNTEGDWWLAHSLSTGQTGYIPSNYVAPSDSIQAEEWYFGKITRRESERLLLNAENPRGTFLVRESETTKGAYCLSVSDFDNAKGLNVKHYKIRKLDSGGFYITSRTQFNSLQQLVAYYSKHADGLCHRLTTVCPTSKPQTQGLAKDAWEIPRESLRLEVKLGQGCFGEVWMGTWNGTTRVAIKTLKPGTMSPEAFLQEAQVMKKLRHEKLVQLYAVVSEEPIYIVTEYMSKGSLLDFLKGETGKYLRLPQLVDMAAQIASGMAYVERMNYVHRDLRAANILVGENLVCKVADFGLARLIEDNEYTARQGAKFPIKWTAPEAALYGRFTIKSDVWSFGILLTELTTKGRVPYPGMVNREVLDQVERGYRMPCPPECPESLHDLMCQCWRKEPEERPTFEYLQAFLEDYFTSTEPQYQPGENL

Take `CN1CCN(Cc2ccc(C(=O)Nc3cncc(C#Cc4cnc5cccnn45)c3)cc2C(F)(F)F)CC1` [HSL338, N-(5-(imidazo[1,2-b]pyridazin-3-ylethynyl)pyridin-3-yl)-4-((4-methylpiperazin-1-yl)methyl)-3-(trifluoromethyl)benzamide]: the IC50 in the assay on KCL22 (setting [1]) came to 1.4 ± 0.02 nM; in the assay with KCL22-IR (setting [2]), 4.2 ± 0.04 nM; in the assay with MOLM14 (setting [3]), 0.075 ± 0.0005 nM; with K562 (setting [4]) it was 0.45 ± 0.002 nM; with MOLM14-D835Y (setting [5]) it was 7.4 ± 0.04 nM.

On to `CN1CCN(Cc2ccc(NC(=O)c3cncc(C#Cc4cnc5ccccn45)c3)cc2C(F)(F)F)CC1` [HSL381, 5-(imidazo[1,2-a]pyridin-3-ylethynyl)-N-(4-((4-methylpiperazin-1-yl)methyl)-3-(trifluoromethyl)phenyl)nicotinamide], for which the IC50 in the assay on KCL22 (setting [1]) is 0.89 ± 0.005 nM; with MOLM14-F691L (setting [6]) it was 0.55 ± 0.06 nM; in the assay on KCL22-IR (setting [2]), 4.24 ± 0.05 nM; in the assay on MOLM14 (setting [3]) it was 0.04 ± 0.006 nM; in the assay with K562 (setting [4]), 0.57 ± 0.003 nM; with MOLM14-D835Y (setting [5]), 7.12 ± 0.06 nM.

`CN1CCN(Cc2ccc(NC(=O)c3cncc(C#Cc4cnc5ncccn45)c3)cc2C(F)(F)F)CC1` [HSL382, 5-(imidazo[1,2-a]pyrimidin-3-ylethynyl)-N-(4-((4-methylpiperazin-1-yl)methyl)-3-(trifluoromethyl)phenyl)nicotinamide]: the IC50 with KCL22 (setting [1]) is greater than 100 nM; in the assay with MOLM14-F691L (setting [6]), greater than 100 nM; with KCL22-IR (setting [2]) it was greater than 100 nM; in the assay with MOLM14 (setting [3]), 5.15 ± 0.09 nM; with K562 (setting [4]), greater than 100 nM; in the assay with MOLM14-D835Y (setting [5]), greater than 100 nM.

With `CN1CCN(Cc2ccc(NC(=O)c3cncc(C#Cc4cnc5cnccn45)c3)cc2C(F)(F)F)CC1` [HSL385, 5-(imidazo[1,2-a]pyrazin-3-ylethynyl)-N-(4-((4-methylpiperazin-1-yl)methyl)-3-(trifluoromethyl)phenyl)nicotinamide], the IC50 came out at 2.62 ± 0.06 nM with KCL22 (setting [1]); 17.2 ± 0.8 nM with KCL22-IR (setting [2]); 0.15 ± 0.007 nM with MOLM14 (setting [3]); 0.94 ± 0.002 nM in the assay with K562 (setting [4]); 28.5 ± 0.9 nM in the assay with MOLM14-D835Y (setting [5]).

For `CN1CCN(Cc2ccc(NC(=O)c3cncc(C#Cc4cncc5nccn45)c3)cc2C(F)(F)F)CC1` [HSL407, 5-(imidazo[1,2-a]pyrazin-5-ylethynyl)-N-(4-((4-methylpiperazin-1-yl)methyl)-3-(trifluoromethyl)phenyl)nicotinamide], the IC50 in the assay with KCL22 (setting [1]) stood at 2.93 ± 0.04 nM; in the assay with MOLM14-F691L (setting [6]), 6.87 ± 0.13 nM; with KCL22-IR (setting [2]) it was 49.7 ± 2.5 nM; in the assay with K562 (setting [4]), 1.83 ± 0.02 nM; with MOLM14-D835Y (setting [5]), 42.9 ± 0.7 nM.

In the case of `CN1CCN(Cc2ccc(NC(=O)c3cncc(C#Cc4cnc5ccnn5c4)c3)cc2C(F)(F)F)CC1` [HSL412, N-(4-((4-methylpiperazin-1-yl)methyl)-3-(trifluoromethyl)phenyl)-5-(pyrazolo[1,5-a]pyrimidin-6-ylethynyl)nicotinamide], the IC50 in the assay on KCL22 (setting [1]) is 28.1 ± 0.4 nM; in the assay on MOLM14-F691L (setting [6]), 17.8 ± 1.3 nM; in the assay with K562 (setting [4]), 28.1 ± 0.6 nM; with MOLM14-D835Y (setting [5]) it was greater than 100 nM.

In the case of `Cc1ncc(C(=O)Nc2ccc(CN3CCN(C)CC3)c(C(F)(F)F)c2)cc1C#Cc1cnc2cccnn12` [HSL420, 5-(imidazo[1,2-b]pyridazin-3-ylethynyl)-6-methyl-N-(4-((4-methylpiperazin-1-yl)methyl)-3-(trifluoromethyl)phenyl)nicotinamide], the IC50 is 0.06 ± 0.002 nM in the assay with KCL22 (setting [1]); 0.57 ± 0.004 nM in the assay on MOLM14-F691L (setting [6]); 0.46 ± 0.01 nM in the assay with KCL22-IR (setting [2]); 0.059 ± 0.002 nM in the assay on K562 (setting [4]); 2.24 ± 0.08 nM in the assay with MOLM14-D835Y (setting [5]).

As for `CN1CCN(Cc2ccc(NC(=O)c3cncc(C#Cc4cnc5cccnn45)c3)cc2C(F)(F)F)CC1` [HSN748, 5-(imidazo[1,2-b]pyridazin-3-ylethynyl)-N-(4-((4-methylpiperazin-1-yl)methyl)-3-(trifluoromethyl)phenyl)nicotinamide], the IC50 with KCL22 (KCL-22, growth inhibition, KCL22 cell line, read-out: IC50 KCL22) was determined as 1.32 nM; in the assay with MOLM14-F691L (MOLM-14, growth inhibition, gilteritinib-resistant AML cell line Molm14 (ITD, F691L), read-out: IC50 MOLM14-F691L), 0.18 nM; in the assay with KCL22-IR (growth inhibition, KCL22-IR cell line), 0.23 nM; with MOLM14 (MOLM-14, growth inhibition, MOLM14 cell line, read-out: IC50 MOLM14), 0.05 nM; in the assay with MOLM13-res (growth inhibition, MOLM13-res cell line) it was 1.73 nM; with H520 (NCI-H520, growth inhibition, H520 cell line, read-out: IC50 H520), 839 nM. In addition, the IC50 was 0.8 nM with K562 (growth inhibition, K562 (ABL1) cell line, read-out: IC50 K562); 0.69 nM in the assay with MOLM14-D835Y (growth inhibition, quizartinib-resistant AML cell line, read-out: IC50 MOLM14-D835Y); 0.07 nM with MV-4-11 (MV4-11, growth inhibition, MV-4-11 (FLT3) cell line, read-out: IC50 MV-4-11); greater than 1000 nM on c-SRC ([ATP] = 100 μM, read-out: IC50 c-SRC); greater than 1000 nM on c-SRC (read-out: IC50 c-Src kinase).

`Cc1ccc(C(=O)Nc2ccc(CN3CCN(C)CC3)c(C(F)(F)F)c2)cc1C#Cc1cnc2cccnn12` [Ponatinib, reference compound]: the IC50 is 35.1 nM in the assay on LC2/Ad; 0.14 nM in the assay on KCL22 (KCL-22, read-out: IC50 KCL22); 6.8 nM with MOLM14-F691L (MOLM-14, read-out: IC50 MOLM14-F691L); 0.66 nM with KCL22-IR; 0.45 nM with MOLM14 (MOLM-14, read-out: IC50 MOLM14); 24.1 nM in the assay with MOLM13-res. In addition, the IC50 in the assay with H520 (NCI-H520, read-out: IC50 H520) is 128 nM; in the assay on K562 (K562, read-out: IC50 K562), 0.6 nM; with MOLM14-D835Y (read-out: IC50 MOLM14-D835Y), 52.6 nM; in the assay on MV-4-11 (MV4-11, read-out: IC50 MV-4-11) it was 0.09 nM.
